In brackets after ≈: the same amount, converted by molar mass. Several values for one entry are separate records, joined by “and”; a condition that tells them apart may be missing. Equal entries are not always repeated. Starred links: 1 amine or outer side, 2 acyl side, 3 side chain; linkers in the order of their positions; H or OH if unused. Non-standard residues stand in square brackets, D forms with d. Residues, ends and D or L forms follow the SMILES beside them. *: point of attachment. X2 = C=CCN([C@@H](C)C(=O)[*:2])[*:1]; X1 = O=C(CN(CC(Br)CBr)[*:1])[*:2]; X3 = O=C(CN(CC(Cl)CCl)[*:1])[*:2]; NAllylGly = C=CCNCC(=O)O; Boc = CC(C)(C)OC(=O)*
What was measured:
[1] = biological target: Human immunodeficiency virus type 1 protease (Human immunodeficiency virus 1, UniProt Q72874); experiment: Antiviral activity against HIV-1 in CEM cells.; assay type: functional, cell-based; conditions: ccrf-cem
[2] = biological target: Human immunodeficiency virus type 1 protease (Human immunodeficiency virus 1) (UniProt Q72874); experiment: Inhibitory activity against HIV-1 Protease using VSQNF(NO2)PIV as substrate in spectrophotometric assay at 10e-5 concentration
[3] = biological target: Human immunodeficiency virus type 1 protease (Human immunodeficiency virus 1) (UniProt Q72874); experiment: Inhibitory activity against HIV-1 Protease using Suc-TLNFPIS-4-AMC as substrate in fluorescence assay at 10e-5 concentration
CCRF-CEM [4] = experiment: Compound was tested for antiviral activity against HIV-1 in CEM cells; Non active compound; assay type: functional, cell-based, Homo sapiens
CCRF-CEM [5] = experiment: Dose required for reduce the reverse transcriptase activity in infected cell supernatant; assay type: functional, cell-based; conditions: Homo sapiens
[6] = Selectivity index between IC50 and EC50; assay type: functional
CCRF-CEM [7] = experiment: Compound was tested for antiviral activity against HIV-1 in CEM cells; assay type: functional, cell-based; conditions: Homo sapiens

Row | Compound | EC50 [1] | inhibition [2] | inhibition [3] [%] | IC50 (CCRF-CEM [4]) | EC50 (CCRF-CEM [5]) [µg/mL] | Ratio [6] | EC50 (CCRF-CEM [7]) [µg/mL]
1 | C=CCN(CC(=O)N[C@H](C(=O)N[C@H](C(=O)OC)C(C)C)[C@@H](C)CC)C(=O)OC(C)(C)C | Not Active | – | – | – | – | – | –
2 | C=CCN(C(=O)[C@H](Cc1ccccc1)NC(=O)OC(C)(C)C)[C@@H](C)C(=O)N[C@H](C(=O)N[C@H](C(=O)OC)C(C)C)[C@@H](C)CC | Not Active | 0% and 7% | 3 | – | – | – | –
3 | C=CCNCC(=O)N[C@H](C(=O)N[C@H](C(=O)OC)C(C)C)[C@@H](C)CC | Not Active | – | – | – | – | – | –
4 | CC[C@H](C)[C@H](NC(=O)CN(CC(Cl)CCl)C(=O)[C@H](Cc1ccccc1)NC(=O)OC(C)(C)C)C(=O)N[C@H](C(=O)OC)C(C)C (stereo partly specified) | Not Active | 0% and 2% | 0 | – | – | – | –
5 | CC[C@H](C)[C@H](NC(=O)CN(CC(Br)CBr)C(=O)[C@H](Cc1ccccc1)NC(=O)OC(C)(C)C)C(=O)N[C@H](C(=O)OC)C(C)C (stereo partly specified) | Not Active | 8% and 10% | 0 | – | – | – | –
6 | C=CCN(CC(=O)N[C@H](C(=O)N[C@H](C(=O)OC)C(C)C)[C@@H](C)CC)C(=O)[C@H](Cc1ccccc1)NC(=O)[C@H](C)NC(=O)[C@H](C)NC(=O)OC(C)(C)C (Boc-AAF[NAllylGly]IV-OMe) | Not Active | 0% and 21% | 0 | Not Active | – | – | –
7 | C=CCN(C(=O)[C@H](Cc1ccccc1)NC(=O)[C@H](C)NC(=O)[C@H](C)NC(=O)OC(C)(C)C)[C@@H](C)C(=O)N[C@H](C(=O)N[C@H](C(=O)OC)C(C)C)[C@@H](C)CC (Boc-AAF[X2]IV-OMe) | Not Active | 0% | 1 | – | – | – | –
8 | C=CCN(CC(=O)N[C@H](C(=O)N[C@H](C(=O)OC)C(C)C)[C@@H](C)CC)C(=O)[C@H](Cc1ccccc1)NC(=O)[C@H](C)NC(=O)OC(C)(C)C (Boc-AF[NAllylGly]IV-OMe) | – | 1% and 4% | 0 | – | 10 (≈ 15.2 µM) | 4.03 | 8.15 (≈ 12.4 µM)
9 | CC[C@H](C)[C@H](NC(=O)CN(CC(Br)CBr)C(=O)[C@H](Cc1ccccc1)NC(=O)[C@H](C)NC(=O)OC(C)(C)C)C(=O)N[C@H](C(=O)OC)C(C)C (stereo partly specified) (Boc-AF[X1]IV-OMe) | – | 3% and 0% | 0 | – | 200 (≈ 244 µM) | > 4.5 | 111 (≈ 135 µM)
10 | C=CCN(C(=O)[C@H](Cc1ccccc1)NC(=O)[C@H](C)NC(=O)OC(C)(C)C)[C@@H](C)C(=O)N[C@H](C(=O)N[C@H](C(=O)OC)C(C)C)[C@@H](C)CC (Boc-AF[X2]IV-OMe) | – | 0% and 9% | 0 | – | 60 (≈ 89 µM) | > 2.51 | 80 (≈ 119 µM)
11 | CC[C@H](C)[C@H](NC(=O)CN(CC(Cl)CCl)C(=O)[C@H](Cc1ccccc1)NC(=O)[C@H](C)NC(=O)OC(C)(C)C)C(=O)N[C@H](C(=O)OC)C(C)C (stereo partly specified) (Boc-AF[X3]IV-OMe) | – | 0% and 12% | 0 | – | 100 (≈ 137 µM) | – | > 100
12 | C=CCN(CC(=O)N[C@H](C(=O)N[C@H](C(=O)OC)C(C)C)[C@@H](C)CC)C(=O)[C@H](Cc1ccccc1)NC(=O)OC(C)(C)C (Boc-F[NAllylGly]IV-OMe) | Not Active | 10% and 13% | 0 | – | – | – | –
13 | C=CCN(CC(=O)N[C@H](C(=O)N[C@H](C(=O)OC)C(C)C)[C@@H](C)CC)C(=O)[C@H](Cc1ccccc1)NC(=O)[C@H](C)NC(=O)[C@H](C)NC(=O)[C@H](CO)NC(=O)OC(C)(C)C (Boc-SAAF[NAllylGly]IV-OMe) | Not Active | 14% and 0% | 0 | – | – | – | –
14 | C=CCN(C(=O)[C@H](Cc1ccccc1)NC(=O)[C@H](C)NC(=O)[C@H](C)NC(=O)[C@H](CO)NC(=O)OC(C)(C)C)[C@@H](C)C(=O)N[C@H](C(=O)N[C@H](C(=O)OC)C(C)C)[C@@H](C)CC (Boc-SAAF[X2]IV-OMe) | Not Active | – | – | – | – | – | –
15 | C=CCN(CC(=O)N[C@H](C(=O)N[C@H](C(=O)OC)C(C)C)[C@@H](C)CC)C(=O)[C@H](Cc1ccccc1)NC(=O)[C@H](C)N (H-AF[NAllylGly]IV-OMe) | Not Active | – | – | – | – | – | –
16 | C=CCN(CC(=O)N[C@H](C(=O)N[C@H](C(=O)OC)C(C)C)[C@@H](C)CC)C(=O)[C@@H](N)Cc1ccccc1 (H-F[NAllylGly]IV-OMe) | Not Active | – | – | – | – | – | –

Reference: ChEMBL document CHEMBL1127713, “Anti-HIV activity of N-(2,3-dihalogenopropyl)- and N-allyl-glycine containing pentapeptides” (Bioorg Med Chem Lett, 1994)
